In the supplement of paper PMC12076712:

What was measured:
Assay in all cases: pIC50, kinobeads binding competition
BTK = BTK (UniProt Q06187); settings: cell material: Lysate mix
Procedure, shortened: (§1)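 To obtain pIC50, fold changes versus vehicle were fitted to logistic dose-response curves (R drc package) across biological duplicates. Protein binding to Kinobeads was quantified by TMT10 LC-MS/MS of digested bead-bound proteins. Treatments used nine concentrations with a top of 30 μM, applied to live Jurkat cells in 1:4 steps for 60 min at 37 °C before lysis, or to Jurkat lysate or a 1:1:1:1 HEK293/K-562/HepG2/placenta lysate mix in 1:5 steps for 60 min at 4 °C.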

CASK = molecular target: T1, CASK (UniProt O14936); settings: cell material: Lysate mix
T1 sequence (whole entry): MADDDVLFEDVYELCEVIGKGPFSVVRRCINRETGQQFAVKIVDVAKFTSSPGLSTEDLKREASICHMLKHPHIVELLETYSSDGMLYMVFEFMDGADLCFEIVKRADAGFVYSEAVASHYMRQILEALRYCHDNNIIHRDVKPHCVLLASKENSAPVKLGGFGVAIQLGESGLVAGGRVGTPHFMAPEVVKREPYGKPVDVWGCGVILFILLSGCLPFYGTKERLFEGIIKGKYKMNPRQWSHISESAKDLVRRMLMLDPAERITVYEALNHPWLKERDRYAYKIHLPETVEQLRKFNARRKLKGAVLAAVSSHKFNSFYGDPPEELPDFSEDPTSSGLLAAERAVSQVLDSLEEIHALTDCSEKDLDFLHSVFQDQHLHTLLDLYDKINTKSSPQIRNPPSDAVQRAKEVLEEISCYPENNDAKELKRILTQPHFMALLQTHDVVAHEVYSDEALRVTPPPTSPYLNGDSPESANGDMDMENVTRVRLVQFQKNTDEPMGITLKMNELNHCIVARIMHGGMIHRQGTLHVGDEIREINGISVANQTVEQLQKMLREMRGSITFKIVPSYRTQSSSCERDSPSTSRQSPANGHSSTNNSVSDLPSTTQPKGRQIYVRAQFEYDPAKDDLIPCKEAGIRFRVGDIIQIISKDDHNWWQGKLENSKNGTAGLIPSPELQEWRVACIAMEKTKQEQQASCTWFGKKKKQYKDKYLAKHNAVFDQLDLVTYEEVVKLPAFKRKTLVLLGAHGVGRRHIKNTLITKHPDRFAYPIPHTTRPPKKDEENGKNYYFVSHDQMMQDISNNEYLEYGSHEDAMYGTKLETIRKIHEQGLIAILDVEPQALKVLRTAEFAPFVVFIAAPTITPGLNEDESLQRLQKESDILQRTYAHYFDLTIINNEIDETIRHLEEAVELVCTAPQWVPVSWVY
Procedure, shortened: as §1

EPHA1 = molecular target: T2, EPHA1 (UniProt P21709); settings: cell material: Lysate mix
T2 sequence (whole entry): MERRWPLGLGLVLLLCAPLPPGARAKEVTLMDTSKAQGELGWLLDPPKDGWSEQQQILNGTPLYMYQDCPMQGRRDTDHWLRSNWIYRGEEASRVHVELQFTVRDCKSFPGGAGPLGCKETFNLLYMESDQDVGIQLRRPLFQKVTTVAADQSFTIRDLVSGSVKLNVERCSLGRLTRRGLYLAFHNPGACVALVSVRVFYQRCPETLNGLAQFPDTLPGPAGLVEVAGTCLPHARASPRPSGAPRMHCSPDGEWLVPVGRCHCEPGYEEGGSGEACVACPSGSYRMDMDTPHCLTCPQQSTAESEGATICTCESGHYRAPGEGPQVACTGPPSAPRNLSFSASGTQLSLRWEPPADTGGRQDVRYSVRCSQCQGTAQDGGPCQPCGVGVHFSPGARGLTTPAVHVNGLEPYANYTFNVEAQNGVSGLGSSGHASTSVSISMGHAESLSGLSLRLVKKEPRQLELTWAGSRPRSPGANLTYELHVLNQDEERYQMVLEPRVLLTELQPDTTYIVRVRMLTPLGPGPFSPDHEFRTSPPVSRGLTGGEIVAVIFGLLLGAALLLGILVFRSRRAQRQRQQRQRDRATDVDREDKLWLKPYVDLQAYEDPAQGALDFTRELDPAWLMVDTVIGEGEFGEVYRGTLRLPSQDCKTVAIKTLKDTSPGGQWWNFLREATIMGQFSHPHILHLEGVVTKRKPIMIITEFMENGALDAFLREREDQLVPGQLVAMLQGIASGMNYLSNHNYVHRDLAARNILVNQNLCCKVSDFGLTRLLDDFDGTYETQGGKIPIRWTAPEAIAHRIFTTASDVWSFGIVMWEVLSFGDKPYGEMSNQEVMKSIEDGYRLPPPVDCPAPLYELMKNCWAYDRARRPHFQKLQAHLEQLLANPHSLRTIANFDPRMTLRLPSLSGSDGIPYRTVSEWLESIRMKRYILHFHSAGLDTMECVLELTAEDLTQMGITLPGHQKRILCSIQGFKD
Procedure, shortened: as §1

LIMK2 = LIMK2 (UniProt P53671)
Procedure, shortened: as §1

TNIK = TNIK (UniProt Q9UKE5)
Procedure, shortened: as §1

UniProt Q9UQB9 = molecular target: T3, UniProt Q9UQB9
T3 sequence (whole entry): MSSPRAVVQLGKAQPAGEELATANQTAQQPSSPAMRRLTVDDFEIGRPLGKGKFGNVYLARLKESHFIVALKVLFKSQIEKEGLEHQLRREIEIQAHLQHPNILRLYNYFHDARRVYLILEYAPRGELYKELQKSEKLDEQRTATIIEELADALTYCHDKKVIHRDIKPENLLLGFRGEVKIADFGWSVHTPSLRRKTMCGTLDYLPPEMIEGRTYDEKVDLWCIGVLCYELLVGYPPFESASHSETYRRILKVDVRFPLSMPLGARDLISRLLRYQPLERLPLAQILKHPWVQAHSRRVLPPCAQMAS
Procedure, shortened: as §1

CDK10 = CDK10 (UniProt Q15131)
Procedure, shortened: as §1

UniProt Q8NEB9 = molecular target: UniProt Q8NEB9
Procedure, shortened: as §1

Sequence of LIMK2 (P53671 whole entry, looked up): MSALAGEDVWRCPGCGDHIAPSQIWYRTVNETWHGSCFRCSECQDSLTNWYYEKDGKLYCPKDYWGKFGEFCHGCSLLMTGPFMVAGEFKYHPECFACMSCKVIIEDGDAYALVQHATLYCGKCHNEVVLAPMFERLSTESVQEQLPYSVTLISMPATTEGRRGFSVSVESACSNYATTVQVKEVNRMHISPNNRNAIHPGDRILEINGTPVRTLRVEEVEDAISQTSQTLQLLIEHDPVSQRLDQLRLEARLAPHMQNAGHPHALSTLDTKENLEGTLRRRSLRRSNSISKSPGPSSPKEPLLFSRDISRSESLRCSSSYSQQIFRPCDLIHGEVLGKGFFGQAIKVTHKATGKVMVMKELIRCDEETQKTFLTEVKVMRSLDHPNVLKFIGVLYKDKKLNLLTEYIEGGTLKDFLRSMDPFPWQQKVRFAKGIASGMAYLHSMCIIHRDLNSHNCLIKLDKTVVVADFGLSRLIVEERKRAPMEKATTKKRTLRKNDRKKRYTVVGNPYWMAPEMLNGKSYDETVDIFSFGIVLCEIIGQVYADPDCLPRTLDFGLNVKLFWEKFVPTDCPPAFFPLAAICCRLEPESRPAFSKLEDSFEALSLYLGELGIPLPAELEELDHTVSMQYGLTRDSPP
Sequence of TNIK (Q9UKE5 whole entry, looked up): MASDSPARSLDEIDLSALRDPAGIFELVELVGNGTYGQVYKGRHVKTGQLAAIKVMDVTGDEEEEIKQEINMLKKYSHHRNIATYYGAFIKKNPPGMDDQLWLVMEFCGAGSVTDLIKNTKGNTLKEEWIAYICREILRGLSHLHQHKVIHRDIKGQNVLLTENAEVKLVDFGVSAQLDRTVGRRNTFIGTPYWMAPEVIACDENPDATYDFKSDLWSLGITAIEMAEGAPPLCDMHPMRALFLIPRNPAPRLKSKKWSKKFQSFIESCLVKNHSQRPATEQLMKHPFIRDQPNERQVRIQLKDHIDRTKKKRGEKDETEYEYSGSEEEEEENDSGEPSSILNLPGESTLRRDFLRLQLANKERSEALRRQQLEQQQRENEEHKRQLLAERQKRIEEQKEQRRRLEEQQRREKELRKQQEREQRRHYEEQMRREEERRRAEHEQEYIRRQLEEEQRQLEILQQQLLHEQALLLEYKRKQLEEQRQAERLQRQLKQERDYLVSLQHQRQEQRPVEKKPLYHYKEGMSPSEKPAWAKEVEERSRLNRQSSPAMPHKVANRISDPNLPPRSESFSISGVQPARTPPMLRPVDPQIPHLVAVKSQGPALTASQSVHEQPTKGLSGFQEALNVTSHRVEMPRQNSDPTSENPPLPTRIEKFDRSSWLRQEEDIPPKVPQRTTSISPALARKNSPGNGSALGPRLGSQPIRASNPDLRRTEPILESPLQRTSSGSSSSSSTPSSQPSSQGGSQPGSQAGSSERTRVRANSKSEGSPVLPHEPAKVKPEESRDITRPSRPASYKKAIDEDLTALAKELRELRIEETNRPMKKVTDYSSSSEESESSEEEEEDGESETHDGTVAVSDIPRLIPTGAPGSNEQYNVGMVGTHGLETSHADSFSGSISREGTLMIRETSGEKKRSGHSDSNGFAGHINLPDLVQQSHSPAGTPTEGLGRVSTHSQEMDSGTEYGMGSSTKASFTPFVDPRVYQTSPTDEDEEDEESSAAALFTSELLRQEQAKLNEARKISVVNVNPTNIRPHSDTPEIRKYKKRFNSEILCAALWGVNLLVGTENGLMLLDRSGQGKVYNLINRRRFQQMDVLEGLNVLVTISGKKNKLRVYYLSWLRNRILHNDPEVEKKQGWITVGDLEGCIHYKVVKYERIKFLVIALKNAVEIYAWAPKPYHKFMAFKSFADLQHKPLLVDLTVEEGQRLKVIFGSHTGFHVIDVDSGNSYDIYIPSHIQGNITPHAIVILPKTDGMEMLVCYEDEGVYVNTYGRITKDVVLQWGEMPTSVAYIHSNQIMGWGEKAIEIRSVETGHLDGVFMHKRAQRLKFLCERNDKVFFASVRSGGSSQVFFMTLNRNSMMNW
Sequence of UniProt Q8NEB9 (Q8NEB9 whole entry): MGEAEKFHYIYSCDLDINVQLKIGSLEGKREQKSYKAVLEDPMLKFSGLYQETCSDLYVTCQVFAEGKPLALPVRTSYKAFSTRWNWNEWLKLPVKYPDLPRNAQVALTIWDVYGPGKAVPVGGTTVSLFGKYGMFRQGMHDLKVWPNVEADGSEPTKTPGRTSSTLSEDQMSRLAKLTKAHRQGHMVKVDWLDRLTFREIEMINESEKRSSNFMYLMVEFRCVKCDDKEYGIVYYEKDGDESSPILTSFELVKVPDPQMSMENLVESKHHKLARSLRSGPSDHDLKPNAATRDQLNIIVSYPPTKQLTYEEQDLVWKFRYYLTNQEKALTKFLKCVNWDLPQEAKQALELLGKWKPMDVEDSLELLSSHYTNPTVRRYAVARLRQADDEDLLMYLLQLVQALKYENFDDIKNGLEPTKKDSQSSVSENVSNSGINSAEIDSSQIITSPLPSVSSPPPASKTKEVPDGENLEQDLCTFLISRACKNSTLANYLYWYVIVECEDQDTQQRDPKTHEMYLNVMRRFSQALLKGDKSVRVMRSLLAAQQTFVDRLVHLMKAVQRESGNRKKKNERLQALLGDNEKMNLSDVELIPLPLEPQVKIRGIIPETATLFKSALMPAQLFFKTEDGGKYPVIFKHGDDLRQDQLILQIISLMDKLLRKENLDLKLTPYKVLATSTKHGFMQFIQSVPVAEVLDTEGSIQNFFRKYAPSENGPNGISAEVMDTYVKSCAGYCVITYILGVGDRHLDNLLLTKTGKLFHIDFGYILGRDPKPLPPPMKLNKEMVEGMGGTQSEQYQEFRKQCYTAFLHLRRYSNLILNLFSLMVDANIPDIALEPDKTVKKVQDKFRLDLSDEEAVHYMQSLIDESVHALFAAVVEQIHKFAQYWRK
Sequence of BTK (Q06187 whole entry): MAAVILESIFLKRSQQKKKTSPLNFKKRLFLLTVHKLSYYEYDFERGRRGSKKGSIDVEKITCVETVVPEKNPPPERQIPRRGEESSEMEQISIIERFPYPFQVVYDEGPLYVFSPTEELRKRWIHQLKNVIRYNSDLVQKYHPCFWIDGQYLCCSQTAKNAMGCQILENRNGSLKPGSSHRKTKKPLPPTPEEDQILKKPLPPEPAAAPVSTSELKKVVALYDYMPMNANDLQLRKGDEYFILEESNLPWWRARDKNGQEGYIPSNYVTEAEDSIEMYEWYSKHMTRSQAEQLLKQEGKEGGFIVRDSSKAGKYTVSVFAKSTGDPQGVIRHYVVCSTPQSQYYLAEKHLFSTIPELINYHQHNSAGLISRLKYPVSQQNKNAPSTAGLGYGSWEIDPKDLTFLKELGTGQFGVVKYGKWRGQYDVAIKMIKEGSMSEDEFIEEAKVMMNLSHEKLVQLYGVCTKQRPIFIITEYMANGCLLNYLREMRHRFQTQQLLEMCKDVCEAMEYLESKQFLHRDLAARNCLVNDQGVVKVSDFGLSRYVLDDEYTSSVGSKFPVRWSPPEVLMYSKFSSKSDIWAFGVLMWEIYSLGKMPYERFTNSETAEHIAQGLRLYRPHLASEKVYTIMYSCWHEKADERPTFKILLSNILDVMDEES
Sequence of CDK10 (Q15131 whole entry): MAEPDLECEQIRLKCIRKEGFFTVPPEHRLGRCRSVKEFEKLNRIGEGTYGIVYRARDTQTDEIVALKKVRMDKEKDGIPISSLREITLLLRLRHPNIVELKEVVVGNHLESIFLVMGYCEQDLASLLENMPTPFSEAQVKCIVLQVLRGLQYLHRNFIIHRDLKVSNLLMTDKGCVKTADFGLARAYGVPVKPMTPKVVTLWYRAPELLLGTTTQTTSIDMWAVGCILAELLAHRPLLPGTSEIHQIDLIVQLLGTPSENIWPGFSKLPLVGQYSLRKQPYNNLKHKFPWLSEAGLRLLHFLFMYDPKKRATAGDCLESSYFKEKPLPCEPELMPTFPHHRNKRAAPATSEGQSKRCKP

Structure (SMILES) | pIC50 (BTK) | pIC50 (CASK) | pIC50 (EPHA1) | pIC50 (LIMK2; cell material: Lysate mix) | pIC50 (TNIK; cell material: Lysate mix) | pIC50 (UniProt Q9UQB9; cell material: Lysate mix) | pIC50 (CDK10; cell material: Lysate mix) | pIC50 (UniProt Q8NEB9; cell material: Lysate mix) | pIC50 (CDK10; cell material: Jurkat cells) | pIC50 (CDK10; cell material: Jurkat lysate) | pIC50 (LIMK2; cell material: Jurkat cells) | pIC50 (LIMK2; cell material: Jurkat lysate) | pIC50 (TNIK; cell material: Jurkat lysate) | pIC50 (UniProt Q8NEB9; cell material: Jurkat cells) | pIC50 (UniProt Q9UQB9; cell material: Jurkat lysate) | pIC50 (TNIK; cell material: Jurkat cells)
CCNC(=O)c1cc(Nc2cc(C)[nH]n2)nc(N2CCN(Cc3ccc(S(=O)(=O)F)cc3)CC2)n1 | < 4.52 | < 4.52 | < 4.52 | 4.62 | < 4.52 | 5.64 | – | – | – | – | – | – | – | – | – | –
CCNC(=O)c1cc(Nc2cc(C3CC3)[nH]n2)nc(N2CCN(Cc3ccc(S(=O)(=O)F)cc3)CC2)n1 | – | < 4.52 | – | 5.38 | – | 5.26 | 5.29 | < 4.52 | – | – | – | – | – | – | – | –
Cc1cc(Nc2cc(C(=O)NCCNC(=O)OC3CC/C=C/CCC3)nc(N3CCN(Cc4ccc(S(=O)(=O)F)cc4)CC3)n2)n[nH]1 (stereo not given) | < 4.52 | – | < 4.52 | < 4.52 | < 4.52 | 4.7 | < 4.52 | – | – | – | – | – | – | – | – | –
C#CCNC(=O)c1cc(Nc2cc(C3CC3)[nH]n2)nc(N2CCN(Cc3ccc(S(=O)(=O)F)cc3)CC2)n1 | – | – | 4.66 | 5.53 | 5.27 | 5.81 | 5.82 | – | 6.16 | 6.04 | 6.52 | 5.16 | < 4.52 | 4.87 | 5.48 | –
C#CCNC(=O)c1cc(Nc2cc(C)[nH]n2)nc(N2CCN(Cc3ccc(S(=O)(=O)F)cc3)CC2)n1 | < 4.52 | < 4.52 | < 4.52 | – | – | – | – | – | – | – | – | – | – | – | – | –
O=C(NCCNC(=O)c1cc(Nc2cc(C3CC3)[nH]n2)nc(N2CCN(Cc3ccc(S(=O)(=O)F)cc3)CC2)n1)OC1CC/C=C/CCC1 (stereo not given) | < 4.52 | < 4.52 | < 4.52 | < 4.52 | < 4.52 | 4.88 | < 4.52 | – | 6.06 | – | 6.33 | < 4.52 | < 4.52 | < 4.52 | – | 5.6
